Where two headings read alike, the source gives them in different places.
Experiment: In vitro permeability across MDCK cell monolayer
Format: in vitro ADME, Canine
Conditions: dog, test compound 5 μM, 2 h at 37° C., apical to basolateral, read-out: Permeability Forward A > B
Method: Compounds were evaluated for permeability across a monolayer of Madin-Darby Canine Kidney (MDCK) cells in a transwell device following culturing for 4 days. […] A 0.5 mL of cell suspension (400,000 cells/mL) was placed on membrane and a 1.5 mL media in the bottom wells on day 1. On day 2 and day 3, cells were fed with new media. […] Media was removed from upper chambers and filled with mHBSS with or without CspA, and incubated 30 min at 37° C. with light shaking. Donor chambers were emptied, and filled with test compound at 5 μM in mHBSS. […] Plates were incubated for 2 h at 37° C. with shaking. After 2 h, both the donor and receiver wells were sampled. The bottom chambers were read in a fluorometer to assess LY leakage, and then the media from all wells were assayed by LC/MS/MS to determine compound levels.

| SMILES | Papp A→B at 2 h, 5 μM [×10⁻⁶ cm/s] | Papp A→B at 2 h, 5 μM (MDCK) [×10⁻⁶ cm/s] |
| --- | --- | --- |
| CC(C)(C)Cc1cc(C2(NCC(O)C(Cc3cc(F)cc(F)c3)NC(=O)CF)CC2)on1 (centres unmarked) [Example 23.10, N-(4-(1-(3-neopentylisoxazol-5-yl)cyclopropylamino)-1-(3,5-difluorophenyl)-3-hydroxybutan-2-yl)-2-fluoroacetamide] | 8.26 | – |
| CC(=O)NC(Cc1cc(F)cc(F)c1)C(O)CNC1(c2cccc(C3CCOCOC3)c2)CC1 (centres unmarked) [Example 23.34, N-(4-(1-(3-(1,3-dioxepan-5-yl)phenyl)cyclopropylamino)-1-(3,5-difluorophenyl)-3-hydroxybutan-2-yl)acetamide] | – | 12.1 |
| CC(=O)NC(Cc1cc(F)cc(F)c1)C(O)CNC1(c2cn(-c3ccsc3)nn2)CC1 (centres unmarked) [Example 23.20, N-(1-(3,5-difluorophenyl)-3-hydroxy-4-(1-(1-(thiophen-3-yl)-1H-1,2,3-triazol-4-yl)cyclopropylamino)butan-2-yl)acetamide] | – | 12.1 |
| COCC(=O)NC(Cc1cc(F)cc(F)c1)C(O)CNC1(c2cccc(-n3cccn3)c2)CC1 (centres unmarked) [Example 23.40, N-(4-(1-(3-(1H-pyrazol-1-yl)phenyl)cyclopropylamino)-1-(3,5-difluorophenyl)-3-hydroxybutan-2-yl)-2-methoxyacetamide] | – | 12.9 |
| CC(=O)NC(Cc1cc(F)cc(F)c1)C(O)CNC1(c2csc(C(C)(C)C)c2)CC1 (centres unmarked) [Example 23.21, N-(4-(1-(5-tert-butylthiophen-3-yl)cyclopropylamino)-1-(3,5-difluorophenyl)-3-hydroxybutan-2-yl)acetamide] | – | 10 |
| COCCOCC(=O)NC(Cc1cc(F)cc(F)c1)C(O)CNC1(c2cccc(-n3cccn3)c2)CC1 (centres unmarked) [Example 23.44, N-(4-(1-(3-(1H-pyrazol-1-yl)phenyl)cyclopropylamino)-1-(3,5-difluorophenyl)-3-hydroxybutan-2-yl)-2-(2-methoxyethoxy)acetamide] | – | 13.3 |
| CC(=O)NC(Cc1cc(F)cc(F)c1)C(O)CNC1(c2cnn(C(C)(C)C)c2)CC1 (centres unmarked) [Example 23.37, N-(4-(1-(1-tert-butyl-1H-pyrazol-4-yl)cyclopropylamino)-1-(3,5-difluorophenyl)-3-hydroxybutan-2-yl)acetamide] | – | 7.11 |
| CC(=O)NC(Cc1cc(F)cc(F)c1)C(O)CNC1(c2ncc(C(C)(C)C)o2)CC1 (centres unmarked) [Example 23.56, N-(4-(1-(5-tert-butyloxazol-2-yl)cyclopropylamino)-1-(3,5-difluorophenyl)-3-hydroxybutan-2-yl)acetamide] | – | 20.4 |
| CC(=O)NC(Cc1cc(F)cc(F)c1)C(O)CNC1(c2cncc(CC(C)(C)C)c2)CC1 (centres unmarked) [Example 23.16, N-(1-(3,5-difluorophenyl)-3-hydroxy-4-(1-(5-neopentylpyridin-3-yl)cyclopropylamino)butan-2-yl)acetamide] | – | 13.5 |
| COC(=O)NC(Cc1cc(F)cc(F)c1)C(O)CNC1(c2cccc(-n3cccn3)c2)CC1 (centres unmarked) [Example 23.45, methyl 4-(1-(3-(1H-pyrazol-1-yl)phenyl)cyclopropylamino)-1-(3,5-difluorophenyl)-3-hydroxybutan-2-ylcarbamate] | – | 17 |
| CC(=O)NC(Cc1cc(F)cc(F)c1)C(O)CNC1(c2csc(CC(C)(C)C)n2)CC1 (centres unmarked) [Example 23.19, N-(4-(1-(2-neopentylthiazol-4-yl)cyclopropylanimo)1-(3,5-difluorophenyl)-3-hydroxybutan-2-yl)acetamide] | 26.7 | – |
| Cc1cc(CC(=O)NC(Cc2cc(F)cc(F)c2)C(O)CNC2(c3cccc(-n4cccn4)c3)CC2)no1 (centres unmarked) [Example 23.49, N-(4-(1-(3-(1H-pyrazol-1-yl)phenyl)cyclopropylamino)-1-(3,5-difluorophenyl)-3-hydroxybutan-2-yl)-2-(5-methylisoxazol-3-yl)acetamide] | – | 10.4 |
| CC(=O)NC(Cc1cc(F)cc(F)c1)C(O)CNC1(c2cc(-n3cccn3)cs2)CC1 (centres unmarked) [Example 23.15, N-(4-(1-(4-(1H-pyrazol-1-yl)thiophen-2-yl)cyclopropylamino)-1-(3,5-difluorophenyl)-3-hydroxybutan-2-yl)acetamide] | – | 12.1 |
| CC(=O)NC(Cc1cc(F)cc(F)c1)C(O)CNC1(c2c(F)ccc(-n3cccn3)c2F)CC1 (centres unmarked) [Example 23.35, N-(4-(1-(2,6-difluoro-3-(1H-pyrazol-1-yl)phenyl)cyclopropylamino)-1-(3,5-difluorophenyl)-3-hydroxybutan-2-yl)acetamide] | – | 19.4 |
| C=C(c1cccc(C2(NCC(O)C(Cc3cc(F)cc(F)c3)NC(C)=O)CC2)c1)C(F)(F)F (centres unmarked) [Example 23.26, N-(1-(3,5-difluorophenyl)-3-hydroxy-4-(1-(3-(3,3,3-trifluoroprop-1-en-2-yl)phenyl)cyclopropylamino)butan-2-yl)acetamide] | – | 10.3 |
| CC(=O)NC(Cc1cc(F)cc(F)c1)C(O)CNC1(c2cccc(C3CC=CCO3)c2)CC1 (centres unmarked) [Example 23.31, N-(1-(3,5-difluorophenyl)-4-(1-(3-(3,6-dihydro-2H-pyran-2-yl)phenyl)cyclopropylamino)-3-hydroxybutan-2-yl)acetamide] | – | 10.7 |
| CC(=O)NC(Cc1cc(F)cc(F)c1)C(O)CNC1(c2cccc(C(C)(C)C(F)F)c2)CC1 (centres unmarked) [Example 23.50, N-(4-(1-(3-(1,1-difluoro-2-methylpropan-2-yl)phenyl)cyclopropylamino)-1-(3,5-difluorophenyl)-3-hydroxybutan-2-yl)acetamide] | – | 12.8 |
| CC(=O)NC(Cc1cc(F)cc(F)c1)C(O)CNC1(c2cccc(-n3cccn3)c2)CC1C (centres unmarked) [Example 23.23, N-(4-(1-(3-(1H-pyrazol-1-yl)phenyl)-2-methylcyclopropylamino)-1-(3,5-difluorophenyl)-3-hydroxybutan-2-yl)acetamide] | – | 11.1 |
| CC(=O)NC(Cc1cc(F)cc(F)c1)C(O)CNC1(c2nc(CC(C)(C)C)cs2)CC1 (centres unmarked) [Example 23.36, N-(1-(3,5-difluorophenyl)-3-hydroxy-4-(1-(4-neopentylthiazol-2-yl)cyclopropylamino)butan-2-yl)acetamide] | 11.3 | – |
| CC(=O)NC(Cc1cc(F)cc(F)c1)C(O)CNC1(c2cccc(C3CCOC3)c2)CC1 (centres unmarked) [Example 23.24, N-(1-(3,5-difluorophenyl)-3-hydroxy-4-(1-(3-(tetrahydrofuran-3-yl)phenyl)cyclopropylamino)butan-2-yl)acetamide] | – | 13.2 |
| CC(=O)NC(Cc1cc(F)cc(F)c1)C(O)CNC1(c2cccc(C3COCO3)c2)CC1 (centres unmarked) [Example 23.53, N-(4-(1-(3-(1,3-dioxolan-4-yl)phenyl)cyclopropylamino)-1-(3,5-difluorophenyl)-3-hydroxybutan-2-yl)acetamide] | – | 12.7 |
| CC(=O)NC(Cc1cc(F)cc(F)c1)C(O)CNC1(n2cccn2)C2CCCC21 (centres unmarked) [Example 23.14, N-(4-(6-(1H-pyrazol-1-yl)bicyclo[3.1.0]hexan-6-ylamino)-1-(3,5-difluorophenyl)-3-hydroxybutan-2-yl)acetamide] | – | 20.4 |
| COCC(C)(C)c1cccc(C2(NCC(O)C(Cc3cc(F)cc(F)c3)NC(C)=O)CC2)c1 (centres unmarked) [Example 23.52, N-(1-(3,5-difluorophenyl)-3-hydroxy-4-(1-(3-(1-methoxy-2-methylpropan-2-yl)phenyl)cyclopropylamino)butan-2-yl)acetamide] | – | 14.7 |
